From ChEMBL document CHEMBL4765228, “Indole-like Trk receptor antagonists” (Eur J Med Chem, 2016)

Tests used:
[1] = target: SRSF protein kinase 1 (Homo sapiens) (UniProt Q96SB4); assay: Inhibition of human SRPK1 assessed as residual activity at 0.1 uM relative to control
[2] = target: Ribosomal protein S6 kinase alpha-5 (Homo sapiens) (UniProt O75582); assay: Inhibition of human RPS6KA5 assessed as residual activity at 0.1 uM relative to control
[3] = target: Mitogen-activated protein kinase 8 (Homo sapiens) (UniProt P45983); assay: Inhibition of human JNK1 assessed as residual activity at 1 uM relative to control
[4] = target: Receptor-interacting serine/threonine-protein kinase 2 (Homo sapiens) (UniProt O43353); assay: Inhibition of human RIPK2 assessed as residual activity at 1 uM relative to control
[5] = target: T1, Serine/threonine-protein kinase Sgk1 (Homo sapiens) (UniProt O00141); assay: Inhibition of human SGK1 assessed as residual activity at 0.1 uM relative to control
T1 sequence (whole entry): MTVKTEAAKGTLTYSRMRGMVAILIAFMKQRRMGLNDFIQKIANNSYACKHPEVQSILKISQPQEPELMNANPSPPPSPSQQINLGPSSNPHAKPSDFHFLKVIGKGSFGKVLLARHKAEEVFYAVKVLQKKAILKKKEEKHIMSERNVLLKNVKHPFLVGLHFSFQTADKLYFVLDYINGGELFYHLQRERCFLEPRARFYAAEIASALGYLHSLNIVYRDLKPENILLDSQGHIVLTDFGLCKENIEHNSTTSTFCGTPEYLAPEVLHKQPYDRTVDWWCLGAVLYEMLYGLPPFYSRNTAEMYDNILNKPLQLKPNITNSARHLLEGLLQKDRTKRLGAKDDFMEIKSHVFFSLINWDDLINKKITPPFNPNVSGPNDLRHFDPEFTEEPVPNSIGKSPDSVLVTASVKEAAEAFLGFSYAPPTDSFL

[6] = target: Proto-oncogene tyrosine-protein kinase Src (Homo sapiens) (UniProt P12931); assay: Inhibition of human GST-HIS-tagged SRC assessed as residual activity at 1 uM relative to control
[7] = target: Serine/threonine-protein kinase N2 (Homo sapiens) (UniProt Q16513); assay: Inhibition of human PRK2 assessed as residual activity at 0.1 uM relative to control
[8] = target: T2, Dual specificity protein kinase TTK (Homo sapiens) (UniProt P33981); assay: Inhibition of human TTK assessed as residual activity at 0.1 uM relative to control
T2 sequence (whole entry): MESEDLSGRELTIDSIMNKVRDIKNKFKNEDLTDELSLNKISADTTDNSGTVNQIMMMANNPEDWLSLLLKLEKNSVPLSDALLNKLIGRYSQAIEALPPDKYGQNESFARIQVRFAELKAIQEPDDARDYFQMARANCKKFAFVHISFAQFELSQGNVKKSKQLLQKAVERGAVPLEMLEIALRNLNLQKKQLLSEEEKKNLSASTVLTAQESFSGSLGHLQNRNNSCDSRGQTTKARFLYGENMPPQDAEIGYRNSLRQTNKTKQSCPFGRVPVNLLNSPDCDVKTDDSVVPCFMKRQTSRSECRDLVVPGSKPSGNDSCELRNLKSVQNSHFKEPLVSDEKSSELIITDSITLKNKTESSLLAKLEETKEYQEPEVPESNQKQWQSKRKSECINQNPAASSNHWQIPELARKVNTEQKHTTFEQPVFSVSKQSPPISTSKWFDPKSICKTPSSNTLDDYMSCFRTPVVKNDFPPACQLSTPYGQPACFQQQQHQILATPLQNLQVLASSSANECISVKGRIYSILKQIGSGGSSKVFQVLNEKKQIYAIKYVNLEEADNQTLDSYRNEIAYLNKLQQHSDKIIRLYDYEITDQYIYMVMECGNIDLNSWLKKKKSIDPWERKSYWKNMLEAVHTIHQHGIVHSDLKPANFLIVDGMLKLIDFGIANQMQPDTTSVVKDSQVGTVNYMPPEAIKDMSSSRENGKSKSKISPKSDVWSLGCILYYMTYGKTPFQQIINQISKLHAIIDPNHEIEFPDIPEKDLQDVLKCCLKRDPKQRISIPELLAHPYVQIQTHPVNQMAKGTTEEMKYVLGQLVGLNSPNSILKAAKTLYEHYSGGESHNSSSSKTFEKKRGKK

[9] = target: T3, Eukaryotic elongation factor 2 kinase (Homo sapiens) (UniProt O00418); assay: Inhibition of human EEF2K assessed as residual activity at 0.1 uM relative to control
T3 sequence (whole entry): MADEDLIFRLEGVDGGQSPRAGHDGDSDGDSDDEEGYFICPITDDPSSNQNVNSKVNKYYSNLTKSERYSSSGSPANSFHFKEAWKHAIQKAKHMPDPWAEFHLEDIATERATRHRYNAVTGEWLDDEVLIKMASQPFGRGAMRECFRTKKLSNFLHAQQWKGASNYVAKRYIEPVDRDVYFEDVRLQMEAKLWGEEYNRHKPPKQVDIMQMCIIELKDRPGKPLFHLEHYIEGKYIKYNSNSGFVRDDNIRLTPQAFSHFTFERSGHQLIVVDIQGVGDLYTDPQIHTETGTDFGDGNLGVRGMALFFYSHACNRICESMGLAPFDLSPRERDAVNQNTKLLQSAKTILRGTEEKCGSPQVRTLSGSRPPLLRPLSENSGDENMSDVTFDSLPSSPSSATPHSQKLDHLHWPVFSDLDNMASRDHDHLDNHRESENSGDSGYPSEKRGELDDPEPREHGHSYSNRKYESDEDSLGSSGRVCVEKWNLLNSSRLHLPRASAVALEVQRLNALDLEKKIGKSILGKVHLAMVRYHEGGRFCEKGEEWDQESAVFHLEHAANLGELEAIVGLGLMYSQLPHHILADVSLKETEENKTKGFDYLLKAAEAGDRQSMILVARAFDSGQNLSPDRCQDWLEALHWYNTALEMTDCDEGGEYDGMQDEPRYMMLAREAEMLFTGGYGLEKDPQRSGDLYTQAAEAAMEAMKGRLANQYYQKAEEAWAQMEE

[10] = target: Tyrosine-protein kinase JAK2 (Homo sapiens) (UniProt O60674); assay: Inhibition of human JAK2 assessed as residual activity at 1 uM relative to control
[11] = target: Calcium/calmodulin-dependent protein kinase kinase 2 (Homo sapiens) (UniProt Q96RR4); assay: Inhibition of human CAMKK2 assessed as residual activity at 0.1 uM relative to control
Homo sapiens = organism: Homo sapiens; assay: Inhibition of human S6K assessed as residual activity at 1 uM relative to control
[12] = target: Dual specificity mitogen-activated protein kinase kinase 1 (Homo sapiens) (UniProt Q02750); assay: Inhibition of human wild type MEK1 assessed as residual activity at 0.1 uM relative to control
[13] = target: Serine/threonine-protein kinase PLK1 (Homo sapiens) (UniProt P53350); assay: Inhibition of human PLK1 assessed as residual activity at 0.1 uM relative to control
[14] = target: Serine/threonine-protein kinase PAK 4 (Homo sapiens) (UniProt O96013); assay: Inhibition of human PAK4 assessed as residual activity at 1 uM relative to control
Serine/threonine-protein kinase PAK 4 (Homo sapiens), sequence (O96013 whole entry, looked up): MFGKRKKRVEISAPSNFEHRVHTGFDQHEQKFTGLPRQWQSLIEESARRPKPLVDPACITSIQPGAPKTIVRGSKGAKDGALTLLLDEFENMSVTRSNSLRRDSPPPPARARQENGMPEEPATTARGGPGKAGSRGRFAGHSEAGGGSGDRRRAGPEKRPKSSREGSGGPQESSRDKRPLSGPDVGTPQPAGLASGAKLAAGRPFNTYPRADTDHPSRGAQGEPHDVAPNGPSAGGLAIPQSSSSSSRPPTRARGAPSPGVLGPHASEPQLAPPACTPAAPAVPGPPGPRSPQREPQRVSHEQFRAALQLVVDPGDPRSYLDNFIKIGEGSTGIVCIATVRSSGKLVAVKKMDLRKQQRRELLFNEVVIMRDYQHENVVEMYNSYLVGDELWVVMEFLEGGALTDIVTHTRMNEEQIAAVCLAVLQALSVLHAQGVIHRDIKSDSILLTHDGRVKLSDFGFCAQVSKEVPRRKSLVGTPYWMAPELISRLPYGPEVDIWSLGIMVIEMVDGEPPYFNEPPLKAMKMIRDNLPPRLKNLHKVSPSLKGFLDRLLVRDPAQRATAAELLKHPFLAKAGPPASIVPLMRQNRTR

Dual specificity mitogen-activated protein kinase kinase 1 (Homo sapiens), sequence (Q02750 whole entry): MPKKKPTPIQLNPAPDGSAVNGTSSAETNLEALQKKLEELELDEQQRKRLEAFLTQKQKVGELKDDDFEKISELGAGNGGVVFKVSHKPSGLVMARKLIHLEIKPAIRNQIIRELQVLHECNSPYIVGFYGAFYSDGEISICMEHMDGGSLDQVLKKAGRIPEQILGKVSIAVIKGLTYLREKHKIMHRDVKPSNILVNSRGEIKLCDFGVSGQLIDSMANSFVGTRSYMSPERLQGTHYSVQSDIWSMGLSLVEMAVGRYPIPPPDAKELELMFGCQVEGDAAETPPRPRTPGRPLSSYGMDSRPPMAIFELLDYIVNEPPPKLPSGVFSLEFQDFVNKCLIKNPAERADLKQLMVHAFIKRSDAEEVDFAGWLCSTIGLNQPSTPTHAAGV
Proto-oncogene tyrosine-protein kinase Src (Homo sapiens), sequence (P12931 2-536 limits assumed): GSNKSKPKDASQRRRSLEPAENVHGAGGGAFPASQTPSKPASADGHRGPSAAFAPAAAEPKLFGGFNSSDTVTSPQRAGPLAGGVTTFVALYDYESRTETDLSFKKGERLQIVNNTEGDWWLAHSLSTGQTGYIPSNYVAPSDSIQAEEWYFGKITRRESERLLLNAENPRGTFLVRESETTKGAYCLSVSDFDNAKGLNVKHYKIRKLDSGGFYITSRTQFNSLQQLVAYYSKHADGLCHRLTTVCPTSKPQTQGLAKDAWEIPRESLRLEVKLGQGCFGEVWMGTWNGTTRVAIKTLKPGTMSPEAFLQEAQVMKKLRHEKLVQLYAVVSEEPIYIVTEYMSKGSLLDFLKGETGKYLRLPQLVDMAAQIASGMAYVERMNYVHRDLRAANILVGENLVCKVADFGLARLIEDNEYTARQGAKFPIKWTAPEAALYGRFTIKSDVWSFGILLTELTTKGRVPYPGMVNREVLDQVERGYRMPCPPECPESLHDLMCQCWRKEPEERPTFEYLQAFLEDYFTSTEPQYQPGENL
Mitogen-activated protein kinase 8 (Homo sapiens), sequence (P45983 whole entry): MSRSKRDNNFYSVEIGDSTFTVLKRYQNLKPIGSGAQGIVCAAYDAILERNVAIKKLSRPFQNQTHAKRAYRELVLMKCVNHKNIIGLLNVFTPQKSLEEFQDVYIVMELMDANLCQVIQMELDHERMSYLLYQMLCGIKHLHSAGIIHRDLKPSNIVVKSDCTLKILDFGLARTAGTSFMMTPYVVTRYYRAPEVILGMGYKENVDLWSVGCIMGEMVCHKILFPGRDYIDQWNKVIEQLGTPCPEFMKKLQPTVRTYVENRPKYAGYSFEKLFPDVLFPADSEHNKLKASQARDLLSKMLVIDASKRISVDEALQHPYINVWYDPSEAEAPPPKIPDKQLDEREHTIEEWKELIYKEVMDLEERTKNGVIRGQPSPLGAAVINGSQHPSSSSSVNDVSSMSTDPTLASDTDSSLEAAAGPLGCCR
Calcium/calmodulin-dependent protein kinase kinase 2 (Homo sapiens), sequence (Q96RR4 2-588 limits assumed): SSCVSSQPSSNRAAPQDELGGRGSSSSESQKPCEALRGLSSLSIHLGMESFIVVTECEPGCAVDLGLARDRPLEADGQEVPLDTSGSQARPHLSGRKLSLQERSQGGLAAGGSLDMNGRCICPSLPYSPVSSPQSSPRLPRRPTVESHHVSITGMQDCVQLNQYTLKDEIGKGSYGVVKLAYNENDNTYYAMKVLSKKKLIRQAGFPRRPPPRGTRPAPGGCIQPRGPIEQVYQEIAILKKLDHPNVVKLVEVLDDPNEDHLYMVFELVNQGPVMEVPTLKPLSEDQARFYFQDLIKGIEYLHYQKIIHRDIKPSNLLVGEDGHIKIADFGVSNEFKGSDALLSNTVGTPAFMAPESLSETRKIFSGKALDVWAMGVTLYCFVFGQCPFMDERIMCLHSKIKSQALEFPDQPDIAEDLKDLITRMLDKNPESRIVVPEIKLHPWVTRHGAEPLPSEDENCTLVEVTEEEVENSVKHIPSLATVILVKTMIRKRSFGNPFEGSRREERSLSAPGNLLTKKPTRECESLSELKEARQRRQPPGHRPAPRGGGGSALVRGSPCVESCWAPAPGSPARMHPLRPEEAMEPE
Serine/threonine-protein kinase N2 (Homo sapiens), sequence (Q16513 whole entry, looked up): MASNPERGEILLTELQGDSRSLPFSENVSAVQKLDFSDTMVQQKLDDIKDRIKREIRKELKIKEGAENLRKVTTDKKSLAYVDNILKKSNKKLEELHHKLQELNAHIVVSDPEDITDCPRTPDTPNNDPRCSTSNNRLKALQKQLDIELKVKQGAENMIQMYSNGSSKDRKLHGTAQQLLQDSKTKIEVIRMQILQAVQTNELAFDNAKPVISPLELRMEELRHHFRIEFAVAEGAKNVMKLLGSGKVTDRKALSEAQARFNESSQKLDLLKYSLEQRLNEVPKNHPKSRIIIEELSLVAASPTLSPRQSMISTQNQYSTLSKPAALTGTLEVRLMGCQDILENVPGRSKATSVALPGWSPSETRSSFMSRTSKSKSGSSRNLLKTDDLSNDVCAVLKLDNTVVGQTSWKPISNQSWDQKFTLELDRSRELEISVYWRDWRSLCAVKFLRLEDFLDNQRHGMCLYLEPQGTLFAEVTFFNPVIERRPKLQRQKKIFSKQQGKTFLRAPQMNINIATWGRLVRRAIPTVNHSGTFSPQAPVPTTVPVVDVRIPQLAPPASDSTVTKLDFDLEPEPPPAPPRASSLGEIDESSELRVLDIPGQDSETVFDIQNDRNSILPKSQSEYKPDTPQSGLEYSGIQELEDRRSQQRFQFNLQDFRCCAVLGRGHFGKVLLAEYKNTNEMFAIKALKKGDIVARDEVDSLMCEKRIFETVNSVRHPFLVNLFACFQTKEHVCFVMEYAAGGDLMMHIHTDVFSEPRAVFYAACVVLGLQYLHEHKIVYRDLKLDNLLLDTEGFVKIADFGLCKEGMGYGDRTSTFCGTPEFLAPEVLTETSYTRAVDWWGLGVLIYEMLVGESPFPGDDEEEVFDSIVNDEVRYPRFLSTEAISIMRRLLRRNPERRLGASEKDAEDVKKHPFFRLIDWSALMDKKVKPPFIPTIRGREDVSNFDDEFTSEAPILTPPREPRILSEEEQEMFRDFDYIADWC
Tyrosine-protein kinase JAK2 (Homo sapiens), sequence (O60674 whole entry): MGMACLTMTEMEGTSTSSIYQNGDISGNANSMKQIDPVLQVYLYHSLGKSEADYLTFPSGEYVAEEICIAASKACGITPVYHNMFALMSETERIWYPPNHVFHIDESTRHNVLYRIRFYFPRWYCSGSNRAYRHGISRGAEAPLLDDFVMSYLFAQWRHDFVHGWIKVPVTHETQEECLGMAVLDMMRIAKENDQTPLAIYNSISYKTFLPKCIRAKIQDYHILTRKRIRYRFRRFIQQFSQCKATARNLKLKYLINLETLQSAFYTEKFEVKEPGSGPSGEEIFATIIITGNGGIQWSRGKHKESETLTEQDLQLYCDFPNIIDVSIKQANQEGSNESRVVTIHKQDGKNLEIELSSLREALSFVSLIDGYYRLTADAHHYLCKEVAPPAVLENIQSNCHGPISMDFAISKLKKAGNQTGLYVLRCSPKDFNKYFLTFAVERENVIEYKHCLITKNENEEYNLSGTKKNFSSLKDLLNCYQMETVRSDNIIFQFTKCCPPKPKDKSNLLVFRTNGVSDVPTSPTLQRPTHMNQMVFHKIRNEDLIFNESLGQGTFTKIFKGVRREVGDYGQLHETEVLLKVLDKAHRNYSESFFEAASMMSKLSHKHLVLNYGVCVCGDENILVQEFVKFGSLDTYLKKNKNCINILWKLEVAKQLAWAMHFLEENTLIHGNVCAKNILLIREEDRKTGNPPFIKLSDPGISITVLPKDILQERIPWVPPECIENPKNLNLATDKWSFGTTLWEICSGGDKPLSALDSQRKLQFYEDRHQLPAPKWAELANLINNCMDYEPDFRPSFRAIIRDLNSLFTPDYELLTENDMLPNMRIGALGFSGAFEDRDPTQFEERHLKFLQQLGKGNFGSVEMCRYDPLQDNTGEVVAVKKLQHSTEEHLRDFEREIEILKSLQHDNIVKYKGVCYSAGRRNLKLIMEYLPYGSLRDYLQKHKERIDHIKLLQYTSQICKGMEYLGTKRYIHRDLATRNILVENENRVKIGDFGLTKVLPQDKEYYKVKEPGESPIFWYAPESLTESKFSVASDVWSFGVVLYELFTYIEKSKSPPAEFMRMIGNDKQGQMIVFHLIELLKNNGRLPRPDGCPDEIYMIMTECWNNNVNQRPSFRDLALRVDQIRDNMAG

Compound	Activity [1] [%]	Activity [2] [%]	Activity [3] [%]	Activity [4] [%]	Activity [5] [%]	Activity [6] [%]	Activity [7] [%]	Activity [8] [%]	Activity [9] [%]	Activity [10] [%]	Activity [11] [%]	Activity (Homo sapiens) [%]	Activity [12] [%]	Activity [13] [%]	Activity [14] [%]
CN(C)S(=O)(=O)c1ccc2c(c1)/C(=C/c1cn(C)c3ccc(O)cc13)C(=O)N2	109	106	97	89	87	68	91	104	97	55	73	92	107	93	90
COc1ccc2[nH]cc(/C=C3\C(=O)Nc4ccc(S(N)(=O)=O)cc43)c2c1	114	93	87	48	85	74	96	101	107	67	83	70	87	93	82
COc1ccc2c(c1)c(/C=C1\C(=O)Nc3ccc(S(=O)(=O)N(C)C)cc31)cn2C	111	105	100	95	90	70	108	102	99	72	76	85	104	83	99
Cn1cc(/C=C2\C(=O)Nc3ccc(S(N)(=O)=O)cc32)c2ccccc21	116	99	94	84	81	108	94	104	99	67	62	81	67	102	78

Results, then the compound that gave them:

Activity [1] [%]	Activity [2] [%]	Activity [3] [%]	Activity [4] [%]	Activity [5] [%]	Activity [6] [%]	Activity [7] [%]	Activity [8] [%]	Activity [9] [%]	Activity [10] [%]	Activity [11] [%]	Activity (Homo sapiens) [%]	Activity [12] [%]	Activity [13] [%]	Activity [14] [%]	Compound
106	103	95	97	80	91	98	109	101	86	53	92	82	93	68	COc1ccc2c(c1)c(/C=C1\C(=O)Nc3ccc(S(N)(=O)=O)cc31)cn2C
105	96	112	100	94	73	90	99	103	87	56	83	104	92	91	CNS(=O)(=O)c1ccc2c(c1)/C(=C/c1cn(C)c3ccc(OC)cc13)C(=O)N2
